Measured values published in patent US7863416B2, “Nociceptin-based analgesics” (Synvax, Inc., priority 2001, dated 2011).
Numbered stars: 1 amine (or outer) side, 2 acyl side, 3 side chain; on linkers, the order of the positions; unused ones are H or OH. Square brackets hold non-standard residues; d marks the D form. Peptide text beside a SMILES is read from it. X1 = O=C([C@H](CCc1ccc([N+](=O)[O-])cc1[N+](=O)[O-])N[*:1])[*:2]; Phe(4-NO2) = N[C@@H](Cc1ccc([N+](=O)[O-])cc1)C(=O)O; Trp(5-CN) = N#Cc1ccc2[nH]cc(C[C@H](N)C(=O)O)c2c1; Phe(4-COOH) = N[C@@H](Cc1ccc(C(=O)O)cc1)C(=O)O; Phe(4-CN) = N#Cc1ccc(C[C@H](N)C(=O)O)cc1; Phe(4-F) = N[C@@H](Cc1ccc(F)cc1)C(=O)O; Phe(4-Me) = Cc1ccc(C[C@H](N)C(=O)O)cc1; Dmt = Cc1cc(O)cc(C)c1C[C@H](N)C(=O)O; hPhe = N[C@@H](CCc1ccccc1)C(=O)O; Dab = NCC[C@H](N)C(=O)O; Dap = NC[C@H](N)C(=O)O; Ahx = NCCCCCC(=O)O

Tests used:
[1] = target: T1, human ORL1 (Homo sapiens, UniProt P41146); experiment: Stimulation of [35S]GTPγS binding in membranes of CHO cells transfected with human ORL-1; assay type: biochemical; settings: for Emax: read-out: % Stimulation ± SEM of [35S]GTPγS binding; for EC50 ± SEM, stimulation of [35S]GTPγS binding: Table 6
T1 construct: expressed in transfected cells; host or cells: CHO cells (G418-selected)
Description: First, CHO cells transfected with human ORL-1 are scraped from tissue culture dishes into 20 mM HEPES, 1 mM EDTA, and then centrifuged at 500×g for 10 minutes. The cells are then re-suspended in this buffer and homogenized using a Polytron Homogenizer.
The cellular homogenate is next centrifuged at 20,000×g for 20 minutes. Following this, the resulting pellet is re-suspended in a buffer containing 20 mM HEPES, 10 mM MgCl2, and 100 mM NaCl, having a resulting pH of 7.4. The suspension is then re-centrifuged at 20,000×g and suspended once more in the above-listed buffer. The pellet may be frozen at −70° C. prior to the final centrifugation. For the binding assay, membranes (10-20 μg protein) are incubated with [^35S]GTPγγS (50 pM), GDP (usually 10 μM), and the desired compound. The total volume of the mixture is 1 ml, which is incubated for 60 min at 25° C.
Following incubation, samples are filtered over glass fiber filters and counted. […]
In these [^35S]GTPγS assays, binding was conducted as described above. EC50 values and percent stimulation were determined using the program Prism.

[2] = target: T1, human ORL1; experiment: [3H]nociceptin binding to membranes of CHO cells transfected with human ORL1; settings: for Hill Coefficient: Table 5

T1 sequence (P41146 whole entry): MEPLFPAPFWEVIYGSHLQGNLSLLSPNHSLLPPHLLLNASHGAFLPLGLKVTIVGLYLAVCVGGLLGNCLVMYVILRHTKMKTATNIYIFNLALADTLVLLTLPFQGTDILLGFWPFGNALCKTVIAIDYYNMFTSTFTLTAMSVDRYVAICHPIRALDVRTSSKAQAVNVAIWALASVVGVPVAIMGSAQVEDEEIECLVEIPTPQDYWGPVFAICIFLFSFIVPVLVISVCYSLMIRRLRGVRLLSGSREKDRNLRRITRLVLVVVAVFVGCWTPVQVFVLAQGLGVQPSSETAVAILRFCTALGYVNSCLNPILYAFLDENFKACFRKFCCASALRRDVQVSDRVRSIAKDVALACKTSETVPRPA

| Compound | Emax [1] [%] | Hill Coefficient [2] | EC50 ± SEM, stimulation of [35S]GTPγS binding [1] | agonist/antagonist character at ORL1 ([1]; in words) | Ki [2] [nM] |
| --- | --- | --- | --- | --- | --- |
| CC(=O)N[C@@H](CCCNC(=N)N)C(=O)N[C@@H](Cc1ccc(C)cc1)C(=O)N[C@@H](Cc1ccc(O)cc1)C(=O)N[C@@H](CCCNC(=N)N)C(=O)N[C@@H](Cc1c[nH]c2ccccc12)C(=O)N[C@@H](CCCNC(=N)N)C(N)=O [VII-15-B, Ac-Arg-Phe(4-Me)-Tyr-Arg-Trp-Arg-NH2] (Ac-R[Phe(4-Me)]YRWR-NH2) | 59.8 ± 16.2 | 0.79 |  |  |  |
| CC(=O)N[C@@H](CCCNC(=N)N)C(=O)N[C@@H](Cc1ccc(C)cc1)C(=O)N[C@@H](Cc1ccc(C)cc1)C(=O)N[C@@H](CCCNC(=N)N)C(=O)N[C@@H](Cc1c[nH]c2ccccc12)C(=O)N[C@@H](CCCNC(=N)N)C(N)=O [VII-17-B, Ac-Arg-Phe(4-Me)-Phe(4-Me)-Arg-Trp-Arg-NH2] (Ac-R[Phe(4-Me)][Phe(4-Me)]RWR-NH2) | < 20 | 1.06 | FLAT |  |  |
| CC(=O)N[C@@H](CCCNC(=N)N)C(=O)N[C@@H](Cc1ccc(C(=O)O)cc1)C(=O)N[C@@H](Cc1ccc(O)cc1)C(=O)N[C@@H](CCCNC(=N)N)C(=O)N[C@@H](Cc1c[nH]c2ccccc12)C(=O)N[C@@H](CCCNC(=N)N)C(N)=O [VII-19-B, Ac-Arg-Phe(4-COOH)-Tyr-Arg-Trp-Arg-NH2] (Ac-R[Phe(4-COOH)]YRWR-NH2) | 45.5 ± 8 | 1.0 |  |  |  |
| CC(=O)N[C@@H](CCCNC(=N)N)C(=O)N[C@@H](Cc1ccc([N+](=O)[O-])cc1)C(=O)N[C@@H](Cc1ccc(O)cc1)C(=O)N[C@@H](CCCNC(=N)N)C(=O)N[C@@H](Cc1c[nH]c2ccccc12)C(=O)N[C@@H](CCCNC(=N)N)C(N)=O [VII-23-B, Ac-Arg-Phe(NO2)-Tyr-Arg-Trp-Arg-NH2] (Ac-R[Phe(4-NO2)]YRWR-NH2) | 56.6 ± 20.4 | 0.74 |  |  |  |
| CC(=O)N[C@@H](CCCNC(=N)N)C(=O)N[C@@H](Cc1ccc(F)cc1)C(=O)N[C@@H](Cc1ccc(O)cc1)C(=O)N[C@@H](CCCNC(=N)N)C(=O)N[C@@H](Cc1c[nH]c2ccccc12)C(=O)N[C@@H](CCCNC(=N)N)C(N)=O [VII-31-B, Ac-Arg-Phe(4-F)-Tyr-Arg-Trp-Arg-NH2] (Ac-R[Phe(4-F)]YRWR-NH2) | 54.4 ± 1.2 | 0.81 |  |  |  |
| CC(=O)N[C@@H](CCCNC(=N)N)C(=O)N[C@@H](Cc1ccc(F)cc1)C(=O)N[C@@H](Cc1ccc(F)cc1)C(=O)N[C@@H](CCCNC(=N)N)C(=O)N[C@@H](Cc1c[nH]c2ccccc12)C(=O)N[C@@H](CCCNC(=N)N)C(N)=O [VII-33-B, Ac-Arg-Phe(4-F)-Phe(4-F)-Arg-Trp-Arg-NH2] (Ac-R[Phe(4-F)][Phe(4-F)]RWR-NH2) | < 20 | 0.89 | FLAT |  |  |
| COc1ccc(C[C@H](NC(=O)[C@H](CCCNC(=N)N)NC(C)=O)C(=O)N[C@@H](Cc2ccc(O)cc2)C(=O)N[C@@H](CCCNC(=N)N)C(=O)N[C@@H](Cc2c[nH]c3ccccc23)C(=O)N[C@@H](CCCNC(=N)N)C(N)=O)cc1 [VII-35-C, Ac-Arg-Tyr(4-Me)-Tyr-Arg-Trp-Arg-NH2] (Ac-RY(Me)YRWR-NH2) | 52.1 ± 0.6 | 0.75 |  |  |  |
| COc1ccc(C[C@H](NC(=O)[C@H](CCCNC(=N)N)NC(C)=O)C(=O)N[C@@H](Cc2ccc(OC)cc2)C(=O)N[C@@H](CCCNC(=N)N)C(=O)N[C@@H](Cc2c[nH]c3ccccc23)C(=O)N[C@@H](CCCNC(=N)N)C(N)=O)cc1 [VII-37-B, Ac-Arg-Tyr(4-Me)-Tyr(4-Me)-Arg-Trp-Arg-NH2] (Ac-RY(Me)Y(Me)RWR-NH2) | < 20 | 0.82 | FLAT |  |  |
| CC(=O)N[C@@H](CCCNC(=N)N)C(=O)N[C@@H](Cc1ccc(C#N)cc1)C(=O)N[C@@H](Cc1ccc(O)cc1)C(=O)N[C@@H](CCCNC(=N)N)C(=O)N[C@@H](Cc1c[nH]c2ccccc12)C(=O)N[C@@H](CCCNC(=N)N)C(N)=O [VII-43-C, Ac-Arg-Phe(4-CN)-Tyr-Arg-Trp-Arg-NH2] (Ac-R[Phe(4-CN)]YRWR-NH2) | 49.7 ± 6.6 | 0.73 |  | partial agonist |  |
| CC(=O)N[C@@H](CCCNC(=N)N)C(=O)N[C@@H](CCc1ccccc1)C(=O)N[C@@H](CCc1ccccc1)C(=O)N[C@@H](CCCNC(=N)N)C(=O)N[C@@H](Cc1c[nH]c2ccccc12)C(=O)N[C@@H](CCCNC(=N)N)C(N)=O [VII-49-B, Ac-Arg-hPhe-hPhe-Arg-Trp-Arg-NH2] (Ac-R[hPhe][hPhe]RWR-NH2) | < 20 | 0.94 | FLAT |  |  |
| CC(=O)N[C@@H](CCCNC(=N)N)C(=O)N[C@@H](Cc1ccc(O)cc1)C(=O)N[C@@H](Cc1ccc(O)cc1)C(=O)N[C@@H](CCCNC(=N)N)C(=O)N[C@@H](Cc1c[nH]c2ccc(C#N)cc12)C(=O)N[C@@H](CCCNC(=N)N)C(N)=O [VII-51-A, Ac-Arg-Tyr-Tyr-Arg-Trp(5-CN)-Arg-NH2] (Ac-RYYR[Trp(5-CN)]R-NH2) | 49.1 ± 0.19 | 0.7 |  |  | 0.3 ± 0.133 |
| CC(=O)NCCCCCC(=O)N[C@@H](Cc1ccc(O)cc1)C(=O)N[C@@H](Cc1ccc(O)cc1)C(=O)N[C@@H](CCCNC(=N)N)C(=O)N[C@@H](Cc1c[nH]c2ccccc12)C(=O)N[C@@H](CCCNC(=N)N)C(N)=O [VII-53-B, Ac-ε-aminocaproyl-Tyr-Tyr-Arg-Trp-Arg-NH2] (Ac-[Ahx]YYRWR-NH2) | 39.5 ± 4 | 0.86 |  |  |  |
| CC(=O)N[C@@H](CCCNC(=N)N)C(=O)N[C@@H](Cc1ccc(O)cc1)C(=O)N[C@@H](Cc1ccc(O)cc1)C(=O)NCCCCCC(=O)N[C@@H](Cc1c[nH]c2ccccc12)C(=O)N[C@@H](CCCNC(=N)N)C(N)=O [VII-55-A, Ac-Arg-Tyr-Tyr-ε-aminocaproyl-Trp-Arg-NH2] (Ac-RYY[Ahx]WR-NH2) | 26.6 ± 1.95 | 1.12 |  |  |  |
| CC(=O)N[C@@H](CCCNC(=N)N)C(=O)N[C@@H](Cc1ccc(O)cc1)C(=O)N[C@@H](Cc1ccc(O)cc1)C(=O)N[C@@H](CCCNC(=N)N)C(=O)N[C@@H](Cc1c[nH]c2ccccc12)C(=O)NCCCCCC(N)=O [VII-57-C, Ac-Arg-Tyr-Tyr-Arg-Trp-ε-aminocaproyl-NH2] (Ac-RYYRW[Ahx]-NH2) | 37.4 ± 2.64 | 0.95 |  |  |  |
| CC(=O)N[C@@H](CCCNC(=N)N)C(=O)N[C@@H](Cc1ccc(O)cc1)C(=O)N[C@@H](Cc1ccc(F)cc1)C(=O)N[C@@H](CCCNC(=N)N)C(=O)N[C@@H](Cc1c[nH]c2ccccc12)C(=O)N[C@@H](CCCNC(=N)N)C(N)=O [VII-61-B, Ac-Arg-Tyr-Phe(4-F)-Arg-Trp-Arg-NH2] (Ac-RY[Phe(4-F)]RWR-NH2) | 70.4 ± 1.98 | 1.05 |  |  | 0.05 |
| CC(=O)N[C@@H](CCCNC(=N)N)C(=O)N[C@@H](Cc1ccc(O)cc1)C(=O)N[C@@H](Cc1ccc([N+](=O)[O-])cc1)C(=O)N[C@@H](CCCNC(=N)N)C(=O)N[C@@H](Cc1c[nH]c2ccccc12)C(=O)N[C@@H](CCCNC(=N)N)C(N)=O [VII-63-B, Ac-Arg-Tyr-Phe(4-NO2)-Arg-Trp-Arg-NH2] (Ac-RY[Phe(4-NO2)]RWR-NH2) | 43.2 ± 0.59 | 1.01 |  |  |  |
| CC(=O)N[C@@H](CN)C(=O)N[C@@H](Cc1ccc(O)cc1)C(=O)N[C@@H](Cc1ccc(O)cc1)C(=O)N[C@@H](CCCNC(=N)N)C(=O)N[C@@H](Cc1c[nH]c2ccccc12)C(=O)N[C@@H](CCCNC(=N)N)C(N)=O [VII-65-F, Ac-Dap-Tyr-Tyr-Arg-Trp-Arg-NH2] (Ac-[Dap]YYRWR-NH2) | 13.7 ± 1.18 | 1.1 | FLAT |  |  |
| CC(=O)N[C@@H](CCN)C(=O)N[C@@H](Cc1ccc(O)cc1)C(=O)N[C@@H](Cc1ccc(O)cc1)C(=O)N[C@@H](CCCNC(=N)N)C(=O)N[C@@H](Cc1c[nH]c2ccccc12)C(=O)N[C@@H](CCCNC(=N)N)C(N)=O [VII-67-A, Ac-Dab-Tyr-Tyr-Arg-Trp-Arg-NH2] (Ac-[Dab]YYRWR-NH2) | < 20 | 1.07 | FLAT |  |  |
| CC(=O)N[C@@H](CCCNC(=N)N)C(=O)N[C@@H](Cc1ccc(O)cc1)C(=O)N[C@@H](CCc1ccc([N+](=O)[O-])cc1[N+](=O)[O-])C(=O)N[C@@H](CCCNC(=N)N)C(=O)N[C@@H](Cc1c[nH]c2ccccc12)C(=O)N[C@@H](CCCNC(=N)N)C(N)=O [VII-71-B, Ac-Arg-Tyr-hPhe(2,4-di-NO2)-Arg-Trp-Arg-NH2] (Ac-RY[X1]RWR-NH2) | 33.6 ± 16.8 | 0.88 |  |  |  |
| CC(=O)N[C@@H](CCCNC(=N)N)C(=O)N[C@@H](Cc1ccc(O)cc1)C(=O)N[C@@H](Cc1c(C)cc(O)cc1C)C(=O)N[C@@H](CCCNC(=N)N)C(=O)N[C@@H](Cc1c[nH]c2ccccc12)C(=O)N[C@@H](CCCNC(=N)N)C(N)=O [VII-73-A, Ac-Arg-Tyr-Tyr(2,6-di-Me)-Arg-Trp-Arg-NH2] (Ac-RY[Dmt]RWR-NH2) | 52.7 ± 0.175 | 0.95 |  |  |  |
